In ChEMBL document CHEMBL1139797, “Conversion of the LXR-agonist TO-901317--from inverse to normal modulation of gamma-secretase by addition of a carboxylic acid and a lipophilic anchor” (Bioorg Med Chem Lett, 2007):
The source made the active and inactive calls. The rule behind the calls is not given here.

Tests used:
Format in all cases: cell-based
[1] = system: H4; test: Cytotoxicity against human H4 cells assessed as reduction of viability
[2] = target: Gamma-secretase; test: Effect on gamma-secretase activity in human H4 cells expressing APP695 assessed as increase in Amyloid beta38 formation by LPECL assay
[3] = target: Gamma-secretase; test: Effect on gamma-secretase activity in human H4 cells expressing APP695 assessed as reduction of Amyloid beta-38 formation by LPECL assay
[4] = target: Gamma-secretase; test: (§1) Effect on gamma-secretase activity in human H4 cells expressing APP695 assessed as reduction of Amyloid beta-40 formation LPECL assay
[5] = target: Gamma-secretase; test: Effect on gamma-secretase activity in human H4 cells expressing APP695 assessed as increase in Amyloid beta-42 formation LPECL assay
[6] = target: Gamma-secretase (Homo sapiens) (UniProt Q96BI3+Q9NZ42+Q8WW43+P49768+Q92542+P49810); test: as §1
[7] = target: Gamma-secretase; test: Effect on gamma-secretase activity in human H4 cells expressing APP695 assessed as reduction of Amyloid beta-42 formation LPECL assay

EC50 [2] [µM]	IC50 [3] [µM]	IC50 [4] [µM]	EC50 [5] [µM]	Activity [6]	IC50 [7] [µM]	SMILES	Activity [1] [µM]
9.3						CC(C)c1cc(C(C)C)c(S(=O)(=O)n2c3ccc(Cl)cc3c3ccc(C(C)C(=O)O)cc32)c(C(C)C)c1 (stereo not given)	40
	4.5	> 40	3.6			O=S(=O)(c1ccccc1)N(CC(F)(F)F)c1ccc(C(O)(C(F)(F)F)C(F)(F)F)cc1 [T091317]	
	> 20	> 40	> 20			CC(C(=O)OCc1ccccc1)c1ccc2c3cc(Cl)ccc3n(S(=O)(=O)c3cc(C(F)(F)F)cc(C(F)(F)F)c3)c2c1 (stereo not given)	> 40
	20		20	inactive		Cc1ccc(S(=O)(=O)n2c3ccc(Cl)cc3c3ccc(C(C)C(=O)OCc4ccccc4)cc32)cc1 (stereo not given)	> 40
23.7		> 40			19.6	CCCCCCCCN(c1ccc(OCC(=O)O)cc1)S(=O)(=O)c1cc(C(F)(F)F)cc(C(F)(F)F)c1	40
	13.3	> 40	6.2			CCCCCCCCN(c1ccc(OCC(=O)OC(C)(C)C)cc1)S(=O)(=O)c1cc(C(F)(F)F)cc(C(F)(F)F)c1	> 40
						CCCCCCCCCCn1c2ccccc2c2ccc(OCC(=O)O)cc21	> 40
7.8						CC(C)c1cc(C(C)C)c(S(=O)(=O)n2c3ccccc3c3ccc(OCC(=O)O)cc32)c(C(C)C)c1	20
	> 40	> 40	10.6			CC(C)(C)OC(=O)COc1ccc(NS(=O)(=O)c2cc(C(F)(F)F)cc(C(F)(F)F)c2)cc1	> 40
5.8						CCCCCCCCCCn1c2ccc(Cl)cc2c2ccc(C(C)C(=O)O)cc21 (stereo not given)	40
